Counter-ions that a name gives are not always drawn.
Legend:
[1] = Determination of the solubility of dasatinib salts (shake flask 37° C., HPLC); format: physicochemical; conditions: 6 hour shaking, 18 hour sedimentation
Protocol: Considering the above mentioned facts our solubility measurements were carried out on three different pH values (pH 1, pH 4.5 and pH 6.8).
Determination of the Solubility of Dasatinib Salts (Measurement Conditions)
Preparation of Sample Mixture:
• 100 mg of dasatinib salt are weighed in a 20 ml Erlenmeyer flask whereupon 10 ml of medium are added and it is shaked for 6 hours at a temperature of 37° C. on 100 rpm. After sedimentation for 18 hours at a temperature of 37° C. the settled solution is filtered through a sieve with 0.45 μm pores and the solution is diluted up to 20 ml with medium.

[2] = Storage stability test: quantity of impurities by HPLC and change thereof; format: physicochemical; conditions: for stability in the storage tests (in words): storage tests carried out under various conditions, thermal stress and forced stability tests
Description: In course of the thermal stress test and the forced stability test the decompositions in a pharmaceutical composition occurring during storage are constructed essentially in an accelerated manner. […] The advantageous properties of the new dasatinib salts of the present invention are significant from the point of view of the formulation of pharmaceutical compositions, the storage and the minimization of the harmful effects exerted in the human body.
The stability of the new dasatinib salts of the present invention were subjected to detailed tests.
Our results regarding the quantity of the impurities and change thereof are shown in the tables below (expressed in percentage).
Measuring conditions are the same as the determination of purity profile below.
Determination of the Impurities of Dasatinib Salts by HPLC (Measurement Conditions)

[3] = 3 week, 40° C./70% RH, listed as Anhydrous dasatinib p-toluenesulfonic acid (1:1) salt Form I

SMILES: Cc1nc(Nc2ncc(C(=O)Nc3c(C)cccc3Cl)s2)cc(N2CCN(CCO)CC2)n1 [dasatinib tosilate (1:1) Form II anhydrate] [N-(2-Chloro-6-methylphenyl)-2-[6-[4-(2-hydroxyethyl)piperazin-1-yl]-2-methylpyrimidin-4-ylamino]-1,3-thiazole-5-carboxamide]
- solubility ([1]; 0.1M HCl (pH 1)): 5702 µg/mL
- solubility ([1]; pH = 4.5 phosphate buffer): 2805 µg/mL
- solubility ([1]; pH = 6.8 phosphate buffer): 11 µg/mL

SMILES: Cc1nc(Nc2ncc(C(=O)Nc3c(C)cccc3Cl)s2)cc(N2CCN(CCO)CC2)n1 [Dasatinib monohydrate, N-(2-Chloro-6-methylphenyl)-2-[6-[4-(2-hydroxyethyl)piperazin-1-yl]-2-methylpyrimidin-4-ylamino]-1,3-thiazole-5-carboxamide, reference compound]
- Impurity Dasatinib N-oxyde (RT 12.2-12.4) ([2]; 3 week, 25° C./90% RH): 0.03%
- Impurity Dasatinib imp 2 (RT 5.2) ([2]; 3 week, 25° C./90% RH): 0.11%
- Impurity Dasatinib imp 3 (RT 18.9) ([2]; 3 week, 25° C./90% RH): 0.04%
- Impurity Deshydroxyethyl dasatinib (RT 11.0) ([2]; 3 week, 25° C./90% RH): 0.12%
- Impurity Ethylene-diamine intermedier (RT 9.0-9.3) ([2]; 3 week, 25° C./90% RH): 0.06%
- Impurity Summary (%) ([2]; 3 week, 25° C./90% RH): 0.43%
- Impurity, unnamed, RT 20.3 ([2]; 3 week, 25° C./90% RH): 0.07%
- Impurity Dasatinib N-oxyde (RT 12.2-12.4) ([2]; 3 week, 40° C./70% RH): 0.03%
- Impurity Dasatinib imp 2 (RT 5.2) ([2]; 3 week, 40° C./70% RH): 0.10%
- Impurity Dasatinib imp 3 (RT 18.9) ([2]; 3 week, 40° C./70% RH): 0.03%
- Impurity Deshydroxyethyl dasatinib (RT 11.0) ([2]; 3 week, 40° C./70% RH): 0.12%
- Impurity Ethylene-diamine intermedier (RT 9.0-9.3) ([2]; 3 week, 40° C./70% RH): 0.08%
- Impurity Summary (%) ([2]; 3 week, 40° C./70% RH): 0.43%
- Impurity, unnamed, RT 20.3 ([2]; 3 week, 40° C./70% RH): 0.07%
- Impurity Dasatinib imp 2 (RT 5.2) ([2]; 6 week, 25° C./90% RH): 0.10%
- Impurity Dasatinib imp 3 (RT 18.9) ([2]; 6 week, 25° C./90% RH): 0.04%
- Impurity Deshydroxyethyl dasatinib (RT 11.0) ([2]; 6 week, 25° C./90% RH): 0.12%
- Impurity Ethylene-diamine intermedier (RT 9.0-9.3) ([2]; 6 week, 25° C./90% RH): 0.03%
- Impurity Summary (%) ([2]; 6 week, 25° C./90% RH): 0.39%
- Impurity, unnamed, RT 19.6 ([2]; 6 week, 25° C./90% RH): 0.02%
- Impurity, unnamed, RT 20.3 ([2]; 6 week, 25° C./90% RH): 0.08%
- Impurity Dasatinib N-oxyde (RT 12.2-12.4) ([2]; 6 week, 40° C./70% RH): 0.02%
- Impurity Dasatinib imp 2 (RT 5.2) ([2]; 6 week, 40° C./70% RH): 0.11%
- Impurity Dasatinib imp 3 (RT 18.9) ([2]; 6 week, 40° C./70% RH): 0.04%
- Impurity Deshydroxyethyl dasatinib (RT 11.0) ([2]; 6 week, 40° C./70% RH): 0.12%
- Impurity Ethylene-diamine intermedier (RT 9.0-9.3) ([2]; 6 week, 40° C./70% RH): 0.03%
- Impurity Summary (%) ([2]; 6 week, 40° C./70% RH): 0.41%
- Impurity, unnamed, RT 19.6 ([2]; 6 week, 40° C./70% RH): 0.02%
- Impurity, unnamed, RT 20.3 ([2]; 6 week, 40° C./70% RH): 0.07%
- Impurity Dasatinib N-oxyde (RT 12.2-12.4) ([2]; starting sample): 0.02%
- Impurity Dasatinib imp 2 (RT 5.2) ([2]; starting sample): 0.11%
- Impurity Dasatinib imp 3 (RT 18.9) ([2]; starting sample): 0.04%
- Impurity Deshydroxyethyl dasatinib (RT 11.0) ([2]; starting sample): 0.12%
- Impurity Ethylene-diamine intermedier (RT 9.0-9.3) ([2]; starting sample): 0.03%
- Impurity Summary (%) ([2]; starting sample): 0.38%
- Impurity, unnamed, RT 20.3 ([2]; starting sample): 0.08%
- stability in the storage tests (in words) ([2]; listed as dasatinib base monohydrate): most stable and suitable form disclosed in the prior art
- solubility ([1]; 0.1M HCl (pH 1)): 5757 µg/mL
- solubility ([1]; pH = 4.5 phosphate buffer): 555 µg/mL
- solubility ([1]; pH = 6.8 phosphate buffer): 156 µg/mL

SMILES: Cc1nc(Nc2ncc(C(=O)Nc3c(C)cccc3Cl)s2)cc(N2CCN(CCO)CC2)n1 [dasatinib tosilate (1:1) dihydrate, N-(2-Chloro-6-methylphenyl)-2-[6-[4-(2-hydroxyethyl)piperazin-1-yl]-2-methylpyrimidin-4-ylamino]-1,3-thiazole-5-carboxamide]
- solubility ([1]; 0.1M HCl (pH 1)): 4898 µg/mL
- solubility ([1]; pH = 4.5 phosphate buffer): 1641 µg/mL
- solubility ([1]; pH = 6.8 phosphate buffer): 10 µg/mL

SMILES: Cc1nc(Nc2ncc(C(=O)Nc3c(C)cccc3Cl)s2)cc(N2CCN(CCO)CC2)n1 [dasatinib tosilate (1:1) Form I anhydrate] [N-(2-Chloro-6-methylphenyl)-2-[6-[4-(2-hydroxyethyl)piperazin-1-yl]-2-methylpyrimidin-4-ylamino]-1,3-thiazole-5-carboxamide]
- Impurity, unnamed, RT 15.5 ([2]; 3 week, 25° C./90% RH): 0.03%
- Impurity Summary (%) ([2]; 3 week, 25° C./90% RH, listed as Anhydrous dasatinib p-toluenesulfonic acid (1:1) salt Form I): 0.03%
- Impurity Ethylene-diamine intermedier (RT 9.0-9.3) [2, 3]: 0.03%
- Impurity Summary (%) [2, 3]: 0.03%
- Impurity, unnamed, RT 15.5 ([2]; starting sample): 0.03%
- Impurity Summary (%) ([2]; starting sample, listed as Anhydrous dasatinib p-toluenesulfonic acid (1:1) salt Form I): 0.03%
- stability in the storage tests (in words) ([2]; listed as anhydrous dasatinib p-toluenesulfonic acid (1:1) salt Form I): particularly stable
- solubility ([1]; 0.1M HCl (pH 1)): 5365 µg/mL
- solubility ([1]; pH = 4.5 phosphate buffer): 4510 µg/mL

SMILES: Cc1nc(Nc2ncc(C(=O)Nc3c(C)cccc3Cl)s2)cc(N2CCN(CCO)CC2)n1 [dasatinib cyclamic acid (1:1) salt Form I] [N-(2-Chloro-6-methylphenyl)-2-[6-[4-(2-hydroxyethyl)piperazin-1-yl]-2-methylpyrimidin-4-ylamino]-1,3-thiazole-5-carboxamide]
- Impurity Dasatinib N-oxyde (RT 12.2-12.4) ([2]; 3 week, 25° C./90% RH): 0.03%
- Impurity Deshydroxyethyl dasatinib (RT 11.0) ([2]; 3 week, 25° C./90% RH): 0.03%
- Impurity Ethylene-diamine intermedier (RT 9.0-9.3) ([2]; 3 week, 25° C./90% RH): 0.02%
- Impurity Summary (%) ([2]; 3 week, 25° C./90% RH): 0.11%
- Impurity, unnamed, RT 15.5 ([2]; 3 week, 25° C./90% RH): 0.03%
- Impurity Dasatinib N-oxyde (RT 12.2-12.4) ([2]; 3 week, 40° C./70% RH): 0.03%
- Impurity Deshydroxyethyl dasatinib (RT 11.0) ([2]; 3 week, 40° C./70% RH): 0.03%
- Impurity Summary (%) ([2]; 3 week, 40° C./70% RH): 0.09%
- Impurity, unnamed, RT 15.5 ([2]; 3 week, 40° C./70% RH): 0.03%
- Impurity Dasatinib N-oxyde (RT 12.2-12.4) ([2]; 6 week, 25° C./90% RH): 0.03%
- Impurity Deshydroxyethyl dasatinib (RT 11.0) ([2]; 6 week, 25° C./90% RH): 0.03%
- Impurity Summary (%) ([2]; 6 week, 25° C./90% RH): 0.06%
- Impurity Dasatinib N-oxyde (RT 12.2-12.4) ([2]; 6 week, 40° C./70% RH): 0.03%
- Impurity Deshydroxyethyl dasatinib (RT 11.0) ([2]; 6 week, 40° C./70% RH): 0.03%
- Impurity Summary (%) ([2]; 6 week, 40° C./70% RH): 0.06%
- Impurity Dasatinib N-oxyde (RT 12.2-12.4) ([2]; starting sample): 0.03%
- Impurity Deshydroxyethyl dasatinib (RT 11.0) ([2]; starting sample): 0.03%
- Impurity Summary (%) ([2]; starting sample): 0.09%
- Impurity, unnamed, RT 15.5 ([2]; starting sample): 0.03%
- stability in the storage tests (in words) [2]: particularly stable
- solubility ([1]; 0.1M HCl (pH 1)): 8533 µg/mL
- solubility ([1]; pH = 4.5 phosphate buffer): 6194 µg/mL
- solubility ([1]; pH = 6.8 phosphate buffer): 5 µg/mL

SMILES: Cc1nc(Nc2ncc(C(=O)Nc3c(C)cccc3Cl)s2)cc(N2CCN(CCO)CC2)n1 [dasatinib mesilate (1:2), N-(2-Chloro-6-methylphenyl)-2-[6-[4-(2-hydroxyethyl)piperazin-1-yl]-2-methylpyrimidin-4-ylamino]-1,3-thiazole-5-carboxamide]
- solubility ([1]; pH = 4.5 phosphate buffer): 805 µg/mL
- solubility ([1]; pH = 6.8 phosphate buffer): 17 µg/mL

SMILES: Cc1nc(Nc2ncc(C(=O)Nc3c(C)cccc3Cl)s2)cc(N2CCN(CCO)CC2)n1 [dasatinib cyclamic acid (1:1) salt Form II] [N-(2-Chloro-6-methylphenyl)-2-[6-[4-(2-hydroxyethyl)piperazin-1-yl]-2-methylpyrimidin-4-ylamino]-1,3-thiazole-5-carboxamide]
- Impurity Dasatinib N-oxyde (RT 12.2-12.4) ([2]; 3 week, 25° C./90% RH): 0.04%
- Impurity Deshydroxyethyl dasatinib (RT 11.0) ([2]; 3 week, 25° C./90% RH): 0.04%
- Impurity Ethylene-diamine intermedier (RT 9.0-9.3) ([2]; 3 week, 25° C./90% RH): 0.03%
- Impurity Summary (%) ([2]; 3 week, 25° C./90% RH): 0.11%
- Impurity Deshydroxyethyl dasatinib (RT 11.0) ([2]; 3 week, 40° C./70% RH): 0.04%
- Impurity Ethylene-diamine intermedier (RT 9.0-9.3) ([2]; 3 week, 40° C./70% RH): 0.03%
- Impurity Summary (%) ([2]; 3 week, 40° C./70% RH): 0.07%
- Impurity Deshydroxyethyl dasatinib (RT 11.0) ([2]; 6 week, 25° C./90% RH): 0.04%
- Impurity Ethylene-diamine intermedier (RT 9.0-9.3) ([2]; 6 week, 25° C./90% RH): 0.03%
- Impurity Summary (%) ([2]; 6 week, 25° C./90% RH): 0.07%
- Impurity Dasatinib N-oxyde (RT 12.2-12.4) ([2]; 6 week, 40° C./70% RH): 0.03%
- Impurity Deshydroxyethyl dasatinib (RT 11.0) ([2]; 6 week, 40° C./70% RH): 0.04%
- Impurity Ethylene-diamine intermedier (RT 9.0-9.3) ([2]; 6 week, 40° C./70% RH): 0.02%
- Impurity Summary (%) ([2]; 6 week, 40° C./70% RH): 0.09%
- Impurity Deshydroxyethyl dasatinib (RT 11.0) ([2]; starting sample): 0.04%
- Impurity Ethylene-diamine intermedier (RT 9.0-9.3) ([2]; starting sample): 0.03%
- Impurity Summary (%) ([2]; starting sample): 0.07%
- stability in the storage tests (in words) [2]: particularly stable
- solubility ([1]; 0.1M HCl (pH 1)): 8862 µg/mL
- solubility ([1]; pH = 4.5 phosphate buffer): 4544 µg/mL

SMILES: Cc1nc(Nc2ncc(C(=O)Nc3c(C)cccc3Cl)s2)cc(N2CCN(CCO)CC2)n1 [dasatinib hydrogen bromide (1:2) salt, N-(2-Chloro-6-methylphenyl)-2-[6-[4-(2-hydroxyethyl)piperazin-1-yl]-2-methylpyrimidin-4-ylamino]-1,3-thiazole-5-carboxamide]
- solubility ([1]; 0.1M HCl (pH 1)): 7994 µg/mL
- solubility ([1]; pH = 4.5 phosphate buffer): 1056 µg/mL

— patent publication US10023566B2, “Dasatinib salts” (EGIS GYOGYSZERGYAR ZRT, priority 2014, dated 2018)
